Test results published in publication PMC11414412, “Design and synthesis new indole-based aromatase/iNOS inhibitors with apoptotic antiproliferative activity” (Frontiers in Chemistry, 2024).

Tests used:
MCF-7 cells = experiment: Antiproliferative assay, MCF-7; type: cell-based; settings: Homo sapiens, MCF7; MCF-7 breast cancer cell line; read-out: Antiproliferative activity IC50 ± SEM, MCF-7
Description: (§1) 4.2.2. Assay for antiproliferative effect
(§2) To explore the antiproliferative potential of compounds propidium iodide fluorescence assay was performed using different cell lines such as Panc-1 (pancreas cancer cell line), MCF-7 (breast cancer cell line), HT-29 (colon cancer cell line) and A-549 (epithelial cancer cell line), respectively. To calculate the total nuclear DNA, a fluorescent dye (propidium iodide, PI) is used which can attach to the DNA, thus offering a quick and precise technique. PI cannot pass through the cell membrane and its signal intensity can be considered as directly proportional to quantity of cellular DNA. Cells whose cell membranes are damaged or have changed permeability are counted as dead ones. The assay was performed by seeding the cells of different cell lines at a density of 3000-7500 cells/well (in200μl medium) in culture plates followed by incubation for 24h at 37 °C in humidified 5%CO2/95% air atmospheric conditions. The medium was removed; the compounds were added to the plates at 10 μM concentrations (in 0.1% DMSO) in triplicates, followed by incubation for 48h. DMSO (0.1%) was used as control. After incubation, medium was removed followed by the addition of PI (25 μl, 50μg/mL in water/medium) to each well of the plates. At - 80 °C, the plates were allowed to freeze for 24 h, followed by thawing at 25 °C. A fluorometer (Polar-Star BMG Tech) was used to record the readings at excitation and emission wavelengths of 530 and 620 nm for each well. The percentage cytotoxicity of compounds was calculated using […]
(§3) Where ATC= Absorbance of treated cells and AC= Absorbance of control. Erlotinib was used as positive control in the assay.

Panc-1 cells = experiment: Antiproliferative assay, Panc-1; type: cell-based; settings: Homo sapiens; Panc-1 pancreatic cancer cell line; read-out: Antiproliferative activity IC50 ± SEM, Panc-1
Description: as §1, §2, §3

HT-29 cells = experiment: Antiproliferative assay, HT-29; type: cell-based; settings: Homo sapiens; HT-29 colon cancer cell line; read-out: Antiproliferative activity IC50 ± SEM, HT-29
Description: as §1, §2, §3

[1] = tested on: four human cancer cell lines (A-549, MCF-7, Panc-1, HT-29); experiment: Antiproliferative assay, average over four cancer cell lines (GI50); type: cell-based; settings: for IC50: average of IC50 against A-549, MCF-7, Panc-1, HT-29
Description: See Supplementary Appendix SA1 for more details.
as §1
To explore the antiproliferative potential of compounds propidium iodide fluorescence assay was performed using different cell lines such as Panc-1 (pancreas cancer cell line), MCF-7 (breast […]
respectively. To calculate the total nuclear DNA, a fluorescent dye (propidium iodide, PI) is used which can attach to the DNA, thus offering a quick and precise technique. PI cannot pass through the cell membrane and its signal intensity can be considered as directly proportional to quantity of cellular DNA. Cells whose cell membranes are damaged or have changed permeability are counted as dead ones. The assay was performed by seeding the cells of different cell lines at a density of […]
The medium was removed; the compounds were added to the plates at 10 μM concentrations (in 0.1% DMSO) in triplicates, followed by incubation for 48h. DMSO (0.1%) was used as control. After incubation, medium was removed followed by the addition of PI (25 μl, 50μg/mL in water/medium) to each well of the plates. At - 80 °C, the plates were allowed to freeze for 24 h, followed by thawing at 25 °C. A fluorometer (Polar-Star BMG Tech) was used to record the readings at excitation and emission wavelengths of 530 and 620 nm for each well. The percentage cytotoxicity of compounds was calculated using […]
Where ATC= Absorbance of treated cells and AC= Absorbance of control. […]
positive control in the assay.

iNOS = molecular target: T1, iNOS (Homo sapiens, UniProt P35228); experiment: NOS inhibition assay (L-citrulline, fluorometric detection), iNOS; type: biochemical; settings: for inhibition at 1 µM: compound at 1 µM; for eNOS/iNOS selectivity: ratio of eNOS IC50 to iNOS IC50
T1 construct: purchased Enzo Life Sciences, Inc. (New York, USA)
Description: (§4) The investigated compounds were tested at 1 µM against the iNOS and 10 µM against the eNOS to determine their isoform selectivity. Because of its critical role in cardiovasculature, inhibiting the constitutive enzyme eNOS should be avoided.
(§5) Refer to Supplementary Appendix SA1 for more details.
(§6) 4.2.4. NOS inhibition assay
(§7) Recombinant human iNOS was purchased from Enzo Life Sciences, Inc. (New York, USA).
(§8) Recombinant bovine eNOS was purchased from Cayman Chemical (Ann Arbor, USA). To measure iNOS activity, 10 μL of enzyme stock solution were added to 80 μL of 2-[4-(2-hydroxyethyl) piperazin-1-yl]ethanesulfonic acid (HEPES) buffer pH = 7.4, 100 mM, containing 0.1 mM CaCl2, 1 mM D,L-dithiothreitol (DTT), 0.5 mg/mL BSA, 10 μM flavin mononucleotide (FMN), 10 μM flavin adenine dinucleotide (FAD), 30 μM tetrahydrobiopterin (BH4), 10 μg/mL calmodulin (CaM), 10 μM L-Arg. For the eNOS activity evaluation, 25 μL of the enzyme stock solution were added to 65 μL of HEPES buffer containing 2 mM CaCl2 and the same cofactors […]
(§9) μM) were added to the enzyme assay solution, followed by pre -incubation of 15 min at 37 ◦C.
(§10) Each reaction was initiated by the addition of 10 μL of NADPH 7.5 mM, carried out at 37 ◦C for 30 min, and stopped by adding 500 μL of ice -cold CH3CN. The mixture was brought to dryness under vacuum and eventually stored at – 20 ◦C, before the HPLC analysis. […]

eNOS = molecular target: T2, eNOS (Bos taurus, UniProt P29473); experiment: NOS inhibition assay (L-citrulline, fluorometric detection), eNOS; type: biochemical, bovine; settings: for inhibition at 10 µM / Inhibition (%) eNOS: compound at 10 µM
T2 construct: purchased Cayman Chemical (Ann Arbor, USA)
Description: as §4, §5, §6, §7, §8, §9, §10

aromatase (CYP19) = molecular target: T3, aromatase (CYP19) (Homo sapiens, UniProt P11511); experiment: Aromatase inhibitory assay (Gentest kit, DBF fluorometric substrate)
T3 sequence (P11511 1-503): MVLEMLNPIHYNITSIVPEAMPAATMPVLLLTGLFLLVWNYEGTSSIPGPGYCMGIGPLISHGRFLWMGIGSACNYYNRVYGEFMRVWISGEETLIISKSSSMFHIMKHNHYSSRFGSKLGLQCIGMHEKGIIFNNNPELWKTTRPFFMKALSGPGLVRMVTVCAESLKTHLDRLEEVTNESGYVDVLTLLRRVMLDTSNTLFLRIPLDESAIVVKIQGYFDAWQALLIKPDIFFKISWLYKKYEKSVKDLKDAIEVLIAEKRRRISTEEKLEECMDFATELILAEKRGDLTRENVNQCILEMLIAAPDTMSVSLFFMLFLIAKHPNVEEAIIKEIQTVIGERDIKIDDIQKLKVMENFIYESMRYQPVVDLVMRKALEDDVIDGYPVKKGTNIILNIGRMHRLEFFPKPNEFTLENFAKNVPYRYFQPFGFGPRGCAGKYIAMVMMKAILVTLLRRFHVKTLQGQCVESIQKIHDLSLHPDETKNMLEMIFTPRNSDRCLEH
Description: The aromatase inhibitory effect was performed using the method reported by Stressor et al.[35].
This method was carried out according to the Gentest kit using CYP19 enzyme and DBF as a
fluorometric substrate. DBF was dealkylated by aromatase and then hydrolyzed to give the
fluorescein product. Briefly, 100 μL of cofactor, containing 78.4 μL of 50 mM phosphate buffer
(pH 7.4); 20 μL of 20x NADPH-generating system (26 mM NADP+, 66 mM glucose-6-phosphate,
and 66 mM MgCl2); and 1.6 μL of 100 U/mL glucose-6-phosphate dehydrogenase, was pipetted
into a 96-well plate and preincubated in 37 °C (water bath) for 10 min. The reaction was initiated
by addition of 100 μL of enzyme/substrate mixture containing 77.3 μL of 50 mM
phosphate buffer (pH 7.4); 12.5 μL of 16 pmol/mL CYP19; 0.2 μL of 0.2 mM DBF, and 10 μL of
0.25 mM diluted tested sample or 10% DMSO as a negative control or letrozole as a positive
control. Fluorescence signal was recorded using an excitation wavelength of 490 nm and emission
Percentage of inhibition (%inhibition) was calculated
as shown in Equation (1).
assayed in triplicate. Finally, IC50 values were determined by plot of concentrations versus %

IC50 (MCF-7 cells)	IC50 (Panc-1 cells)	IC50 (HT-29 cells)	IC50 ([1]; Homo sapiens)	inhibition at 1 µM (iNOS)	inhibition at 10 µM (eNOS)	IC50 (aromatase (CYP19))	Fold more effective than compound 11 (GI50) [1]	IC50 [1]	IC50 (iNOS)	eNOS/iNOS selectivity (iNOS)	IC50 (eNOS)	IC50 eNOS (eNOS)	Inhibition (%) eNOS (eNOS)	Fold potency relative to Erlotinib (GI50) ([1]; GI50 24 nM vs Erlotinib […] nM)	Fold less potent than Letrozole (aromatase IC50) (aromatase (CYP19))	Fold more potent than Ketoconazole (aromatase IC50) (aromatase (CYP19))	Structure (SMILES)
34 ± 3 nM	32 ± 3 nM	32 ± 3 nM	32 nM	62 ± 2%	49 ± 2%	20 ± 2 nM											CCc1c2cc(Cl)ccc2n2c(C)c(C(=O)OCc3ccccc3)[nH]c(=O)c12 [Compound 5, benzyl 8-chloro-10-ethyl-4-methyl-1-oxo-1,2-dihydropyrazino [1,2-a]indole-3-carboxylate]
28 ± 2 nM	25 ± 2 nM	25 ± 2 nM	28 nM	81 ± 3%		12 ± 1 nM	at least 1.4 fold	26 nM	98 ± 3 nM	>510	> 50000 nM	inactive	completely inactive				CCc1c2cc(Cl)ccc2n2cc(-c3ccccc3)[nH]c(=O)c12 [Compound 16, 8-Chloro-10-ethyl-3-phenylpyrazino [1,2-a]indol-1(2H)-one]
25 ± 2 nM	24 ± 2 nM	25 ± 2 nM	25 nM	87 ± 3%		10 ± 1 nM		24 nM	75 ± 2 nM	>670	> 50000 nM		completely inactive	1.4 fold	5 fold	at least 10 fold	CCc1c2cc(Cl)ccc2n2cc(Cc3ccccc3)n(C)c(=O)c12 [Compound 12, 3-Benzyl-8-chloro-10-ethyl-2-methylpyrazino[1,2-a]indol-1(2H)-one]
30 ± 3 nM	28 ± 2 nM	29 ± 2 nM	29 nM	73 ± 2%	32 ± 2%	15 ± 1 nM	at least 1.4 fold						moderate inhibitory action				CCc1c2cc(Cl)ccc2n2c(C)c(C(=O)NCc3ccccc3)[nH]c(=O)c12 [Compound 7, N-benzyl-8-chloro-10-ethyl-4-methyl-1-oxo-1,2-dihydropyrazino [1,2-a]indole-3-carboxamide]
